What was measured:
Test in all cases: relative viability (nuclei count vs DMSO), 5 days (fraction); higher = more cells survive
NCI-H520 = system: NCI-H520
Procedure, shortened: (§1)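 After 5 days of treatment, lung cancer cells in 1536-well plates were fixed and stained in a single step (final 0.05% Triton X-100, 1% formaldehyde, 1 ug/ml Hoechst) and their nuclei counted on 4× images. Treatment had been applied by pin tool the day after seeding as one drug alone or as a fixed anchor-drug dose with five library-drug doses (not always all listed) in √10 steps. Relative viability is the nuclei count of treated wells divided by that of vehicle wells, and values are medians of duplicate plates.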

NCI-H1666 = system: NCI-H1666
Procedure, shortened: as §1

HOP-62 = system: HOP-62
Procedure, shortened: as §1

NCI-H1355 = system: NCI-H1355
Procedure, shortened: as §1

HCC-827 = system: HCC-827
Procedure, shortened: as §1

LU99A = system: LU99A
Procedure, shortened: as §1

NCI-H838 = system: NCI-H838
Procedure, shortened: as §1

NCI-H23 = system: NCI-H23
Procedure, shortened: as §1

NCI-H596 = system: NCI-H596
Procedure, shortened: as §1

EPLC-272H = system: EPLC-272H
Procedure, shortened: as §1

PC-14 = system: PC-14
Procedure, shortened: as §1

NCI-H322M = system: NCI-H322M
Procedure, shortened: as §1

NCI-H2405 = system: NCI-H2405
Procedure, shortened: as §1

NCI-H1975 = system: NCI-H1975
Procedure, shortened: as §1

NCI-H3122 = system: NCI-H3122
Procedure, shortened: as §1

NCI-H647 = system: NCI-H647
Procedure, shortened: as §1

NCI-H727 = system: NCI-H727
Procedure, shortened: as §1

NCI-H2170 = system: NCI-H2170
Procedure, shortened: as §1

UMC-11 = system: UMC-11
Procedure, shortened: as §1

BEN = system: BEN
Procedure, shortened: as §1

NCI-H358 = system: NCI-H358
Procedure, shortened: as §1

ABC-1 = system: ABC-1
Procedure, shortened: as §1

`O=c1[nH]c2ccccc2n1C1CCN(CCCC(c2ccc(F)cc2)c2ccc(F)cc2)CC1` [Pimozide] + COc1cc2c(Oc3ccc(NC(=O)C4(C(=O)Nc5ccc(F)cc5)CC4)cc3F)ccnc2cc1OCCCN1CCOCC1 [Foretinib] (partner 0.25 µM) showed a relative viability (NCI-H520; first compound 0.08 µM) of 0.886, a relative viability (NCI-H520; first compound 0.253 µM) of 0.779 and a relative viability (NCI-H520; first compound 0.8 µM) of 0.618. The relative viability (NCI-H520; first compound 2.53 µM) was 0.916, the relative viability (NCI-H520; first compound 8 µM) was 0.898 and the relative viability (NCI-H1666; first compound 0.08 µM) was 0.952. For the same molecule, the relative viability (NCI-H1666; first compound 0.253 µM) was 0.939, the relative viability (NCI-H1666; first compound 0.8 µM) was 0.941 and the relative viability (NCI-H1666; first compound 2.53 µM) was 0.867. The relative viability (NCI-H1666; first compound 8 µM) was 0.857, the relative viability (HOP-62; first compound 0.08 µM) was 1.05 and the relative viability (HOP-62; first compound 0.253 µM) was 1.14. It also gave a relative viability (HOP-62; first compound 2.53 µM) of 1.04, a relative viability (HOP-62; first compound 8 µM) of 1.03 and a relative viability (NCI-H1355; first compound 0.08 µM) of 0.808. For the same molecule, the relative viability (NCI-H1355; first compound 0.253 µM) was 0.923, the relative viability (NCI-H1355; first compound 0.8 µM) was 0.888 and the relative viability (NCI-H1355; first compound 2.53 µM) was 0.886. The relative viability (NCI-H1355; first compound 8 µM) was 1, the relative viability (HCC-827; first compound 0.253 µM) was 1.01 and the relative viability (HCC-827; first compound 0.8 µM) was 0.915. For the same molecule, the relative viability (HCC-827; first compound 2.53 µM) was 0.967, the relative viability (HCC-827; first compound 8 µM) was 0.904 and the relative viability (LU99A; first compound 0.08 µM) was 0.872. It also gave a relative viability (LU99A; first compound 0.253 µM) of 0.756, a relative viability (LU99A; first compound 0.8 µM) of 0.922 and a relative viability (LU99A; first compound 2.53 µM) of 0.84. It also gave a relative viability (LU99A; first compound 8 µM) of 0.922, a relative viability (NCI-H838; first compound 0.08 µM) of 1.02 and a relative viability (NCI-H838; first compound 0.253 µM) of 1.11. The relative viability (NCI-H838; first compound 0.8 µM) was 1.08, the relative viability (NCI-H838; first compound 2.53 µM) was 1.03 and the relative viability (NCI-H838; first compound 8 µM) was 1.04. It also gave a relative viability (NCI-H23; first compound 0.08 µM) of 0.676, a relative viability (NCI-H23; first compound 0.253 µM) of 1.07 and a relative viability (NCI-H23; first compound 0.8 µM) of 0.833. For the same molecule, the relative viability (NCI-H23; first compound 2.53 µM) was 0.712, the relative viability (NCI-H23; first compound 8 µM) was 0.829 and the relative viability (NCI-H596; first compound 0.08 µM) was 0.883. It also gave a relative viability (NCI-H596; first compound 0.253 µM) of 0.902, a relative viability (NCI-H596; first compound 0.8 µM) of 1.02 and a relative viability (NCI-H596; first compound 2.53 µM) of 0.78. The relative viability (NCI-H596; first compound 8 µM) was 0.821, the relative viability (EPLC-272H; first compound 0.08 µM) was 0.631 and the relative viability (EPLC-272H; first compound 0.253 µM) was 0.667. It also gave a relative viability (EPLC-272H; first compound 0.8 µM) of 0.539, a relative viability (EPLC-272H; first compound 2.53 µM) of 0.175 and a relative viability (EPLC-272H; first compound 8 µM) of 0.567. For the same molecule, the relative viability (PC-14; first compound 0.253 µM) was 1, the relative viability (PC-14; first compound 0.8 µM) was 0.943 and the relative viability (PC-14; first compound 2.53 µM) was 0.965. The relative viability (PC-14; first compound 8 µM) was 1.02, the relative viability (NCI-H322M; first compound 0.253 µM) was 1.04 and the relative viability (NCI-H322M; first compound 0.8 µM) was 0.85. The relative viability (NCI-H322M; first compound 2.53 µM) was 0.942, the relative viability (NCI-H322M; first compound 8 µM) was 0.844 and the relative viability (NCI-H2405; first compound 0.08 µM) was 1.03. It also gave a relative viability (NCI-H2405; first compound 0.253 µM) of 1.02, a relative viability (NCI-H2405; first compound 0.8 µM) of 1.04 and a relative viability (NCI-H2405; first compound 2.53 µM) of 0.961. For the same molecule, the relative viability (NCI-H2405; first compound 8 µM) was 0.838, the relative viability (NCI-H1975; first compound 0.08 µM) was 0.948 and the relative viability (NCI-H1975; first compound 0.253 µM) was 0.84. For the same molecule, the relative viability (NCI-H1975; first compound 0.8 µM) was 1.02, the relative viability (NCI-H1975; first compound 2.53 µM) was 0.847 and the relative viability (NCI-H1975; first compound 8 µM) was 0.952. It also gave a relative viability (NCI-H3122; first compound 0.08 µM) of 0.911, a relative viability (NCI-H3122; first compound 0.253 µM) of 1 and a relative viability (NCI-H3122; first compound 0.8 µM) of 0.91. The relative viability (NCI-H3122; first compound 2.53 µM) was 0.968, the relative viability (NCI-H3122; first compound 8 µM) was 0.923 and the relative viability (NCI-H647; first compound 0.08 µM) was 1.28. For the same molecule, the relative viability (NCI-H647; first compound 0.253 µM) was 1.17, the relative viability (NCI-H647; first compound 0.8 µM) was 1.14 and the relative viability (NCI-H647; first compound 2.53 µM) was 1.22. It also gave a relative viability (NCI-H647; first compound 8 µM) of 1.17, a relative viability (NCI-H727; first compound 0.08 µM) of 0.679 and a relative viability (NCI-H727; first compound 0.253 µM) of 0.87. The relative viability (NCI-H727; first compound 0.8 µM) was 0.798, the relative viability (NCI-H727; first compound 2.53 µM) was 0.722 and the relative viability (NCI-H727; first compound 8 µM) was 0.782. The relative viability (NCI-H2170; first compound 0.08 µM) was 1.04, the relative viability (NCI-H2170; first compound 0.253 µM) was 1.03 and the relative viability (NCI-H2170; first compound 0.8 µM) was 0.985. The relative viability (NCI-H2170; first compound 2.53 µM) was 0.99, the relative viability (NCI-H2170; first compound 8 µM) was 1.06 and the relative viability (UMC-11; first compound 0.08 µM) was 1.05. For the same molecule, the relative viability (UMC-11; first compound 0.253 µM) was 1.01, the relative viability (UMC-11; first compound 0.8 µM) was 1 and the relative viability (UMC-11; first compound 2.53 µM) was 1.14. The relative viability (UMC-11; first compound 8 µM) was 1.07, the relative viability (BEN; first compound 0.08 µM) was 0.624 and the relative viability (BEN; first compound 0.253 µM) was 0.768. It also gave a relative viability (BEN; first compound 0.8 µM) of 0.618, a relative viability (BEN; first compound 2.53 µM) of 0.581 and a relative viability (BEN; first compound 8 µM) of 0.783. It also gave a relative viability (NCI-H358; first compound 0.08 µM) of 0.671, a relative viability (NCI-H358; first compound 0.253 µM) of 0.661 and a relative viability (NCI-H358; first compound 0.8 µM) of 0.578. The relative viability (NCI-H358; first compound 2.53 µM) was 0.562, the relative viability (NCI-H358; first compound 8 µM) was 0.695 and the relative viability (ABC-1; first compound 0.08 µM) was 1.11. It also gave a relative viability (ABC-1; first compound 0.253 µM) of 0.995, a relative viability (ABC-1; first compound 0.8 µM) of 0.723 and a relative viability (ABC-1; first compound 2.53 µM) of 0.891. The relative viability (ABC-1; first compound 8 µM) was 0.767.
